Measurements taken from article PMC10040441 (Nature biomedical engineering, 2023).

Experiments:
[1] = target: amyloid-β (Aβ42) aggregates (Homo sapiens, UniProt P05067); assay: fluorescence intensity binding assay with synthetic Aβ[…] aggregates
[2] = target: amyloid-β (Aβ40) aggregates (Homo sapiens, UniProt P05067); assay: as above
Chain of amyloid-β (Aβ40) aggregates (P05067 672-711): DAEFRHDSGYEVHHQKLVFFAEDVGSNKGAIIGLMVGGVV

Chain of amyloid-β (Aβ42) aggregates (P05067 672-713): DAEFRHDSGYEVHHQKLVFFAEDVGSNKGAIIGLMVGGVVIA

Kd [1]: 78.9 ± 12.3 nM
Kd [2]: 43.7 ± 5.8 nM
SMILES: CC1(C)C(/C=C/C2=C(c3ccc(CCC(=O)O)cc3)C(=C/C=C3/N(CCC[N+](C)(C)C)c4ccc(S(=O)(=O)O)cc4C3(C)C)/CCC2)=[N+](CCC[N+](C)(C)C)c2ccc(S(=O)(=O)O)cc21 [ZW800–1C]
